{
  "source": "patent US7022337B2",
  "about": "(Shire Laboratories, Inc., priority 2002, dated 2006)",
  "origin": "cited, not measured here",
  "settings": "prolonged treatment, 300 to 400 mg per day",
  "data": [
    {"smiles": "CC(C)OC(=O)C(C)(C)Oc1ccc(C(=O)c2ccc(Cl)cc2)cc1", "note": "[Fenofibrate, 2-[4-(4-Chlorobenzoyl)phenoxy]-2-methylpropanoic acid 1-methylethyl ester]", "values": [
      {"measurement": "Reduction in the levels of triglycerides", "result": "40 to 50", "unit": "%"},
      {"measurement": "Reduction in total cholesterol", "result": "20 to 25", "unit": "%"}
    ]}
  ]
}
